Consider one compound from US9364479B2, “Use of a receptor-type kinase modulator for treating polycystic kidney disease” (SYMPHONY EVOLUTION, INC., priority 2010, dated 2016).

For one series, the system named is Estrogen. Put plainly: NovaScreen assay. The class given is binding.
The target in a further series is T1, PKC-ε (Homo sapiens, UniProt Q02156).
T1 construct: purchased PanVera
Put plainly: Radiometric kinase assay. The class given is biochemical. The protocol:
(§1) Further screening was performed using the biochemical assay methods of Example 2. Additional description of the components and concentrations are summarized in Table 8, Table 9, and Table 10, below.

A further series concerns the target T2, Chk2 (Homo sapiens, UniProt O96017).
T2 construct: Human, 5-543, N-; GST (N); His (C); purchased Upstate Biotechnology
Put plainly: Radiometric kinase assay. The class given is biochemical. On the procedure:
as §1

Another series addresses T3, Chk1 (Homo sapiens, UniProt O14757).
T3 construct: GST (N); purchased Upstate Biotechnology
Put plainly: Radiometric kinase assay. The class given is biochemical. The protocol:
as §1

The next series addresses T4, Plk1 (Homo sapiens, UniProt P53350).
T4 construct: His6
Put plainly: Radiometric kinase assay. The class given is biochemical. The protocol:
as §1

Series [1] relates to PC-3 human tumor xenograft. Put plainly: PC-3 xenograft, tumor growth. The class given is in vivo. The conditions noted are these: Mus musculus; qd × 28. The protocol: The response of tumors to treatment was determined by comparing the mean tumor weight of the treatment group with the appropriate control group. Percentage inhibition of tumor growth was determined with the following formula: Percentage inhibition=100×[1−(Xf−Xo)/(Yf−Yo)], where Xf and Yf are the mean tumor weights of the treatment and control groups, respectively, on day f, and Xo and Yo are the mean tumor weights of treatment and control groups respectively, on day zero (staged tumor weights after grouping)

The target of a further series is T5, EphB4 (Homo sapiens, UniProt P54760).
T5 construct: residues E605-E890 of human EphB4 containing a six histidine NH2-terminal tag; His6 (N); made in house; host or cells: baculovirus expression system
T5 sequence (P54760 605-890): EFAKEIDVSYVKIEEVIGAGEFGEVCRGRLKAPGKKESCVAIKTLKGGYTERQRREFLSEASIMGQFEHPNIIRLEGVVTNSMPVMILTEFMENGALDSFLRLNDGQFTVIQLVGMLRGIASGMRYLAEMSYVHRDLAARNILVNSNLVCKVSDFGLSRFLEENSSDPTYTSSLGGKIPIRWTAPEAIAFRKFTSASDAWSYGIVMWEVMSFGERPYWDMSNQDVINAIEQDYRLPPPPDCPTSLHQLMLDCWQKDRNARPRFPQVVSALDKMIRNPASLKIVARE
Put plainly: Mechanism of action study / Ki determination. The class given is biochemical. On the procedure: Enzymatic activity was measured by standard methods after dilution of the enzyme-inhibitor complex. Activity was compared to a DMSO control treated under identical conditions.

Series [2] has as its system Corticotropin Releasing Factor, Non-selective. Put plainly: NovaScreen assay. The class given is binding.
The next series deals with T6, c-Abl (Homo sapiens, UniProt P00519).
T6 construct: Human, P118-; mM MgCl2, 3 mM MnCl2, 1; S553, N-GST,; GST (N); purchased ProQinase
T6 sequence (P00519 118-553): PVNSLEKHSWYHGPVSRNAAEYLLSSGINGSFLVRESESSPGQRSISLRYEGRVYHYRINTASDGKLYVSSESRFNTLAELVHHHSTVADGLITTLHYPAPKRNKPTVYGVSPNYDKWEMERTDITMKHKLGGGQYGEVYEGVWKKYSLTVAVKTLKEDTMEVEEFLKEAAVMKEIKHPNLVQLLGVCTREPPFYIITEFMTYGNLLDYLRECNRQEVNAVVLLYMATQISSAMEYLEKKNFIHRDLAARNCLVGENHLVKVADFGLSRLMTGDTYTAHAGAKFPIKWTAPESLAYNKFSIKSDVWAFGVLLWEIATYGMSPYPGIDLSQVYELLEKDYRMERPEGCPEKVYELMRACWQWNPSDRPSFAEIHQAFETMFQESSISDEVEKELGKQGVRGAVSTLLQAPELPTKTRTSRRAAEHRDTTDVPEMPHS
Put plainly: Chemiluminescent kinase assay. The class given is biochemical. The protocol: (§2) A Luciferase-coupled chemiluminescence assay was used to measure EGFR and KDR (VEGFR2) activity. Kinase activity was measured as the percentage of ATP consumed following the kinase reaction using luciferase-luciferin-coupled chemiluminescence. Reactions were conducted in 384-well white, medium-binding microtiter plates (Greiner). […] The reaction mixture was incubated at room temperature for 4 h. Following the kinase reaction, a 20 μL aliquot of Kinase Glo (Promega) was added and luminescence signal was measured using a Victor2 plate reader (Perkin-Elmer). Total ATP consumption was limited to 50%.
as §1

In the next series the target is T7, Lck (Homo sapiens, UniProt P06239).
T7 construct: Human, Q225-; mM MgCl2, 3 mM MnCl2, 1; P510, N-GST/C-; GST (N); EF (C)
T7 sequence (P06239 225-509 limits assumed): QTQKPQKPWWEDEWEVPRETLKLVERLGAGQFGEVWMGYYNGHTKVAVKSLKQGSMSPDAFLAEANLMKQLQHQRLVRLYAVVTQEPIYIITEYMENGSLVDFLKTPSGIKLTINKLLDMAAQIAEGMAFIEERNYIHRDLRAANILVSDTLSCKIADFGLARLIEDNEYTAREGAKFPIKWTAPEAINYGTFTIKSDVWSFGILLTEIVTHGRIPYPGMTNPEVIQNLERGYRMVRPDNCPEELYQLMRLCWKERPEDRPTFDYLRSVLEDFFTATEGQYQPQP
Put plainly: Chemiluminescent kinase assay. The class given is biochemical. On the procedure:
as §2, §1

Another series concerns the target T8, ZAP-70 (Homo sapiens, UniProt P43403).
T8 construct: purchased MBL
Put plainly: Chemiluminescent kinase assay. The class given is biochemical. On the procedure: as §2, §1

Another series addresses T9, c-Met (Homo sapiens, UniProt P08581).
T9 construct: Human, P948-; MgCl2, 0.02% Triton X-100,; S1343, N-GST-; GST (N); purchased ProQinase
The series can be described thus: Chemiluminescent kinase assay. The class given is biochemical. On the procedure:
as §2, §1

For a further series, the target named is c-Kit (Homo sapiens, UniProt P10721). Put plainly: c-Kit autophosphorylation ELISA, transfected HeLa cells. The class given is cell-based. On the set-up: expressed in transfected cells; host or cells: HeLa. As to conditions: read-out: Cellular IC50, autophosphorylation. The protocol: The c-Kit autophosphorylation ELISA utilized HeLa (ATCC) cells. Cells were seeded at 6×10^5 cells/well onto 100 mm dish. 24 hours later, HeLa cells were transfected with a mammalian expression plasmid containing a CMV promoter operably linked to the open reading frame of human c-kit with a Flag epitope tag on the C-terminus 24 hours later, c-Kit transfected HeLa cells were trypsinized and re-seeded at 6×10^3 cells/well into 96-well microtiter plates (Costar 3904), in DMEM (Cellgro) containing 10% FBS (Heat-Inactivated, Hyclone), 1% penicillin-streptomycin (Cellgro), and 1% NEAA solution (Cellgro). The cells were then incubated at 37° C., 5% CO2 for 24 hr. […] Negative control wells were left unstimulated. Following stimulation, media was removed, the cell monolayer washed with cold PBS and immediately lysed with cold lysis buffer. Lysates were incubated in 96-well streptavidin-coated plates (Pierce) coated with biotin-conjugated, goat anti-human c-Kit (1 μg/ml, R&D Systems). Plates were washed 3× with TBST and incubated either with HRP-conjugated anti-phosphotyrosine (1:10,000, Zymed Laboratories, Inc) or HRP-conjugated anti-Flag(M2) (1:2,000, Sigma). Plates were washed again as described above followed by the addition of a luminol-based substrate solution and read with a Victor spectrophotometer (Wallac).
Sequence of c-Kit (P10721 26-976): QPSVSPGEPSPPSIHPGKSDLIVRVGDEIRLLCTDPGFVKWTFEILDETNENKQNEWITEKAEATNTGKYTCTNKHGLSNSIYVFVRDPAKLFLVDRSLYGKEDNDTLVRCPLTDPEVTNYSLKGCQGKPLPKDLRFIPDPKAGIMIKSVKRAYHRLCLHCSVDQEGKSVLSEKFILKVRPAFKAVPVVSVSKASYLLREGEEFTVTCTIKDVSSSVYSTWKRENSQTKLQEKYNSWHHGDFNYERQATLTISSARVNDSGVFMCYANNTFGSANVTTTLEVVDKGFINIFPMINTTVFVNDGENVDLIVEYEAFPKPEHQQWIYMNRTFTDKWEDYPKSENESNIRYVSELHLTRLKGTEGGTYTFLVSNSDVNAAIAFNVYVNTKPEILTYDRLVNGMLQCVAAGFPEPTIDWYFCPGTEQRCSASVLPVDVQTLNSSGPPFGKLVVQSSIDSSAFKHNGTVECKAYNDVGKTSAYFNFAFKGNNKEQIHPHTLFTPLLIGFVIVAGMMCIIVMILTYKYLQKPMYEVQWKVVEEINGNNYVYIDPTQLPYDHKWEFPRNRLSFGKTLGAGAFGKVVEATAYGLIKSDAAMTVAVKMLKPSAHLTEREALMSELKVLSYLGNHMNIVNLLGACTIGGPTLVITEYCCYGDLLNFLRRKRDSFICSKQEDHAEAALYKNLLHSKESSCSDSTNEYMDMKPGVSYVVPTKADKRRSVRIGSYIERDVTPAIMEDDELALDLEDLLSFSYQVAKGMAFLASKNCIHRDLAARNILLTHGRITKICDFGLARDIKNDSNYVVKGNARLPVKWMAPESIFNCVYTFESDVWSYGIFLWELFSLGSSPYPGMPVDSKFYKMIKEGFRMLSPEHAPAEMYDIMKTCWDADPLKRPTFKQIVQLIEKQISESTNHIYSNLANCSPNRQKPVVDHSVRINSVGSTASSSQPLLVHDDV

A further series has as its target CYP2D6 (Homo sapiens, UniProt P10635).
Another series is described as follows: clinical. The conditions noted are these: human, in vivo.
Series [3] concerns panel of 10 tyrosine kinases and 55 serine-threonine kinases. The series can be described thus: Kinase panel screen. The class given is biochemical. The conditions noted are these: incl. insulin and IGF-1 receptor, CDKs, SAPKs, PKC isoforms.

Some results are limits rather than exact numbers.

T8 sequence (P43403 whole entry): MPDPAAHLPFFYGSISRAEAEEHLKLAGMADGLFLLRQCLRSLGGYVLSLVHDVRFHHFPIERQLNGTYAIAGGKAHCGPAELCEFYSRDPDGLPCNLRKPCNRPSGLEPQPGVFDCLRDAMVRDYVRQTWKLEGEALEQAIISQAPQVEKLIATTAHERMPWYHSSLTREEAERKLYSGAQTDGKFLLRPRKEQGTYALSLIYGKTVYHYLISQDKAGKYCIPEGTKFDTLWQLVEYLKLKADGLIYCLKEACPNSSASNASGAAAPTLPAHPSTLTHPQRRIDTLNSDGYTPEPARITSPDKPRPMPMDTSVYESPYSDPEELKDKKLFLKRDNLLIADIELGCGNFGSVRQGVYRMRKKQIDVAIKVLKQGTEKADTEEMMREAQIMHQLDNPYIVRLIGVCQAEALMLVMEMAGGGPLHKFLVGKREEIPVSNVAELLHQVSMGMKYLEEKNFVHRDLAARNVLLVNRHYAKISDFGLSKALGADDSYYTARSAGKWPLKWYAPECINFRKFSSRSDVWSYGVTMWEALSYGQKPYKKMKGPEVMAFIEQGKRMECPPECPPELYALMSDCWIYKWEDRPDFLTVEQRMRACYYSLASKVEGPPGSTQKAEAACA
Sequence of CYP2D6 (P10635 whole entry): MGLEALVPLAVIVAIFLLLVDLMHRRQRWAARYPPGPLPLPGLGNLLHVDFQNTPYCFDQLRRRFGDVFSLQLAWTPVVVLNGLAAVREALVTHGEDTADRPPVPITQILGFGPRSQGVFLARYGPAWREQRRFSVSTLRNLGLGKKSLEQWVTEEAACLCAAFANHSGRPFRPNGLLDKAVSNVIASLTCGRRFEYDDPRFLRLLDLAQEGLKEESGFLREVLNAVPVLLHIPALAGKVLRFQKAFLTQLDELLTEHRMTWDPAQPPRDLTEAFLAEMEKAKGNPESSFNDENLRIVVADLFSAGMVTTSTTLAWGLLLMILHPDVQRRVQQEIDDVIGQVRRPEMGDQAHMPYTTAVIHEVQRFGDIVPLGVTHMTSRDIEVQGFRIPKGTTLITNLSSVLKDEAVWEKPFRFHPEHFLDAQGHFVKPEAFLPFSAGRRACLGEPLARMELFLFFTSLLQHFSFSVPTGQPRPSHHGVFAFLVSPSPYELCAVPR
T4 sequence (P53350 whole entry): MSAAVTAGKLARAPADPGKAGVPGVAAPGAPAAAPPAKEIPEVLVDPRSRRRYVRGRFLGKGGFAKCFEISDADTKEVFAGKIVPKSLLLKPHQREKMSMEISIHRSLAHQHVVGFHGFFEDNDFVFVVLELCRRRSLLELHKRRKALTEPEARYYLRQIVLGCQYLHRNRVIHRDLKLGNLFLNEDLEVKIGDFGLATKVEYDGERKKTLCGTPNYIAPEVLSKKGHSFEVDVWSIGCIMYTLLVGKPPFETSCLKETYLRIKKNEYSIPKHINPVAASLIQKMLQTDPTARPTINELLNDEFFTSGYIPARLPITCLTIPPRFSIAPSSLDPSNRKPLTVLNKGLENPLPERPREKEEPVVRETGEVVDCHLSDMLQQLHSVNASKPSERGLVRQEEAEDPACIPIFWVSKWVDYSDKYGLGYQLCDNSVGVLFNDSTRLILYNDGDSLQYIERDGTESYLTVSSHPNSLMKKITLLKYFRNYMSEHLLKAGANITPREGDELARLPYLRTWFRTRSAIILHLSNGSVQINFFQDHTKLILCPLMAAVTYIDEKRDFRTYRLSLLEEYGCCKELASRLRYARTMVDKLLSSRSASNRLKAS
T9 sequence (P08581 956-1390 limits assumed): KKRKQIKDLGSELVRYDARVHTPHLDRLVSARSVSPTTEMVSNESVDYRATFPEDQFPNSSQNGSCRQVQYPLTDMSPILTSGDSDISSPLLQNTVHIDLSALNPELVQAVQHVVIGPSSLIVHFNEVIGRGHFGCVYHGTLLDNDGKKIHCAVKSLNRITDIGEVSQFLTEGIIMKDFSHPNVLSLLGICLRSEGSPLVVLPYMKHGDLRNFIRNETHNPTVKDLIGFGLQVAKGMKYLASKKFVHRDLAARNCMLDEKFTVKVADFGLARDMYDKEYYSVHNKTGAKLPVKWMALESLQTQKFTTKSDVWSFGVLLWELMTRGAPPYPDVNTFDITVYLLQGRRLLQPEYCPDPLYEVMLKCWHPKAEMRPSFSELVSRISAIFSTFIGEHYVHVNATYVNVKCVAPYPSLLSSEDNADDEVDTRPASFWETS
T1 sequence (Q02156 whole entry): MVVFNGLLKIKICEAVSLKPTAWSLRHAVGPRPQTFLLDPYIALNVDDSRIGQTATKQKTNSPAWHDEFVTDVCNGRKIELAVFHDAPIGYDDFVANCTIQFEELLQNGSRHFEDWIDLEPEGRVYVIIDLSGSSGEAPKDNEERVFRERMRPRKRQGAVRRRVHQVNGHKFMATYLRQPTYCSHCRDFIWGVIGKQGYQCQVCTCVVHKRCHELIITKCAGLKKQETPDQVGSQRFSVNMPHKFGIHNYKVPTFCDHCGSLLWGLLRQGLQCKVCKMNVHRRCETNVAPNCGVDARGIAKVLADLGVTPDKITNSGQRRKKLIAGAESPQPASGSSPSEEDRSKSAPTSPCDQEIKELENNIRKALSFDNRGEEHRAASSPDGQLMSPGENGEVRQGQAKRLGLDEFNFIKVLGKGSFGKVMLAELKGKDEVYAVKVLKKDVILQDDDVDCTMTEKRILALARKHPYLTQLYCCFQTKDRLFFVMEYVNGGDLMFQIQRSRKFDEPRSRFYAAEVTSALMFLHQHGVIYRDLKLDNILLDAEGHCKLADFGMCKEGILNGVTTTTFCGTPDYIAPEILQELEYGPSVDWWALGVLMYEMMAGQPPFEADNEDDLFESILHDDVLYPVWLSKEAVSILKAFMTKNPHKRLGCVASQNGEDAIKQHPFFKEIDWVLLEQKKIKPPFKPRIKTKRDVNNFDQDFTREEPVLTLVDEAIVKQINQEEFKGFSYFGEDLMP

Usually IC50 stands for the concentration that gives 50% inhibition. As usually defined, the ED50 is the dose at which the effect has come halfway, by size or by number of responders. A higher ED50 goes with a need for a large dose. As a reminder, the Ki is a dissociation constant, usually derived from enzyme kinetics or from competition with a known ligand. Low values mean higher affinity, high ones lower affinity. The term half-life denotes the time needed for the level to fall by half in the phase considered. A higher half-life goes with slow loss. The Tmax is the time from dosing to the highest level. With `COc1cc2c(Nc3ccc(Cl)c(Cl)c3F)ncnc2cc1OC[C@@H]1C[C@@H]2CN(C)C[C@@H]2C1` [XL-647, N-(3,4-dichloro-2-fluorophenyl)-7-({[(3aR,5r,6aS)-2-methyloctahydrocyclopenta[c]pyrrol-5-yl]methyl}oxy)-6-(methyloxy)quinazolin-4-amine], the “Inhibition, 10 μM XL-647” value was 15.75% in the series on Estrogen and 32.32% in series [2]. In addition, the half-inhibitory concentration (IC50) at PKC-ε is more than 10 µM; against Chk2 it was more than 10 µM; at Chk1, more than 10 µM; against Plk1, more than 1 µM; at c-Abl, 0.337 ± 0.0036 µM; at Lck, 0.031 ± 0.0003 µM. Besides, the results for the 50% inhibitory concentration (IC50) on ZAP-70, on c-Met and on c-Kit were 7.81 ± 0.655 µM, 0.332 ± 0.0507 µM and 0.09 µM, respectively. Also, the 50% effect level in series [1] (ED50) was put at a dose of 34 mg/kg. Further, at EphB4, the ATP-Competitive entry is listed as “Yes”. In addition, the affinity at EphB4 corresponds to a Ki of 0.001 µM. Moreover, the Reversible entry on EphB4 was “Yes”. At CYP2D6, the “CYP2D6 inhibition, in words” value was “inhibitor”. The half-life in “clinical” was approximately 60 h. Besides, in “clinical” (po), the time of peak concentration (Tmax) was approximately 4 h. Besides, the “activity against kinase panel, in words” value in series [3] is “inactive”.
